Source: publication PMC5711809, “Bayesian Analysis of MicroScale Thermophoresis Data to Quantify Affinity of Protein:Protein Interactions with Human Survivin” (Scientific Reports, 2017)
Peptide text beside a SMILES is read from it.

Assay: solubility in typical aqueous buffers
Format: physicochemical

## CC(C)C[C@H](NC(=O)[C@H](CO)NC(=O)[C@H](CC(N)=O)NC(=O)[C@@H](NC(=O)[C@H](CCCCN)NC(=O)[C@H](C)NC(=O)[C@@H](NC(=O)[C@H](CCCNC(=N)N)NC(=O)[C@H](CO)NC(=O)[C@H](CO)NC(=O)CN)C(C)C)[C@@H](C)O)C(=O)N[C@@H](CCCNC(=N)N)C(=O)N[C@@H](CCCNC(=N)N)C(=O)N[C@@H](CCCNC(=N)N)C(=O)N[C@@H](CCCCN)C(=O)O [Borealin^6–20, GSSRVAKTNSLRRRK] (H-GSSRVAKTNSLRRRK-OH)
  solubility (in words): soluble
